Earlier results as cited in article PMC4415995 (Advances in Therapy, 2015).

System: patients with T2DM
Conditions: cited from earlier work

SMILES	maximal UGE
Cc1ccc([C@@H]2O[C@H](CO)[C@@H](O)[C@H](O)[C@H]2O)cc1Cc1ccc(-c2ccc(F)cc2)s1 [canagliflozin]	85 to 100 g
CCOc1ccc(Cc2cc([C@@H]3O[C@H](CO)[C@@H](O)[C@H](O)[C@H]3O)ccc2Cl)cc1 [dapagliflozin]	85 to 100 g
OC[C@H]1O[C@@H](c2ccc(Cl)c(Cc3ccc(O[C@H]4CCOC4)cc3)c2)[C@H](O)[C@@H](O)[C@@H]1O [empagliflozin]	85 to 100 g
OC[C@H]1O[C@@H](c2ccc(F)c(Cc3cc4ccccc4s3)c2)[C@H](O)[C@@H](O)[C@@H]1O [ipragliflozin]	85 to 100 g
